Experimental data taken from patent publication US6162925A, “Antibiotic for methicillin resistant bacteria” (Research Corporation Tech., Inc., priority 1999, dated 2000).
Converted amounts (≈) assume the structure as drawn. Read-outs that look alike come from different tables or passages of the source.

Assays:
[1] = tested on: Staphylococcus haemolyticus UA281; assay: MIC, broth microdilution (NCCLS), S. haemolyticus UA281; type: cell-based; conditions: read-out: Minimal Inhibitory Concentration (MIC)
Protocol: (§1) Test compounds were assayed against Staphylococcus aureus FDA 209P by the 10 fold agar disc diffusion assay on BHI-plates at pH=7 and pH=9 in accordance with the procedure from the National Committee for Clinical Laboratory Standards 1989. Susceptibility testing. A panel of 16 bacteria was used to evaluate the antimicrobial activity of the compounds (Table 2). The MIC of each antimicrobial agent was determined using a microdilution method according to NCCLS standards^1. Serial twofold dilutions of antibiotics were prepared in Mueller-Hinton broth (Difco Laboratories, Detroit, Mich.). Bacteria were grown to early log phase at 35° C. (1 hours) in Mueller-Hinton broth and cultures were diluted to achieve a final inoculum of 5×10^5 CFU per ml. Microtiter plates were incubated at 35° C. for 20 h and then were read using a Thermomax microplate reader (Molecular Devices, Sunnyvale, Calif.) and a microtiter plate reading mirror. The MIC was defined as the lowest concentration of antibiotic which inhibited the development of visible growth at the end of the incubation period. The standard reference strains were Staphyloccocus aureus ATCC […], Enterococcus faecalis ATCC 29212, E. faecium ATCC 35667, Escherichia coli ATCC 25922, and Pseudomonas aeruginosa ATCC 27853. Imipenem and vancomycin were used as antibiotic controls and values for reference strains were in accordance with the NCCLS.
(§2) Staphylococcus Methicillin
haemolyticus UA281 resistant

[2] = tested on: Enterococcus faecium efm040; assay: MIC, broth microdilution (NCCLS), E. faecium efm040; type: cell-based; conditions: read-out: Minimal Inhibitory Concentration (MIC)
Protocol: as §1
Enterococcus Clinical isolate,
faecium efm040 U.S.A. resistant

[3] = tested on: Enterococcus faecalis ATCC 29212; assay: MIC, broth microdilution (NCCLS), E. faecalis ATCC 29212; type: cell-based; conditions: read-out: Minimal Inhibitory Concentration (MIC)
Protocol: as §1
(§3) Enterococcus ATCC Reference strain

[4] = tested on: Staphylococcus aureus COL8A; assay: MIC, broth microdilution (NCCLS), S. aureus COL8A; type: cell-based; conditions: 20 h, read-out: Minimal Inhibitory Concentration (MIC)
Protocol: as §1, §2
aureus COL8A susceptible, […]

[5] = tested on: Staphylococcus aureus PC1; assay: MIC, broth microdilution (NCCLS), S. aureus PC1; type: cell-based; conditions: read-out: Minimal Inhibitory Concentration (MIC)
Protocol: as §1
Staphylococcus Type A βlactamase
aureus PC1 hyperproducer

[6] = tested on: Staphylococcus aureus ATCC 33593; assay: MIC, broth microdilution (NCCLS), S. aureus ATCC 33593; type: cell-based; conditions: read-out: Minimal Inhibitory Concentration (MIC)
Protocol: as §1
Staphylococcus ATCC Methicillin
aureus ATCC 33593 resistant, β-

[7] = tested on: Enterococcus faecium BM4147; assay: MIC, broth microdilution (NCCLS), E. faecium BM4147; type: cell-based; conditions: read-out: Minimal Inhibitory Concentration (MIC)
Protocol: as §1
(§4) Enterococcus Vancomycin
faecium BM4147 resistant, vanA

[8] = tested on: Staphylococcus aureus sa201; assay: MIC, broth microdilution (NCCLS), S. aureus sa201; type: cell-based; conditions: read-out: Minimal Inhibitory Concentration (MIC)
Protocol: as §1
Staphylococcus Clinical isolate,
aureus sa201 Spain resistant, β-

[9] = tested on: Enterococcus faecium ATCC 35667; assay: MIC, broth microdilution (NCCLS), E. faecium ATCC 35667; type: cell-based; conditions: read-out: Minimal Inhibitory Concentration (MIC)
Protocol: as §1, §3

[10] = tested on: Staphylococcus aureus sa ATCC 13709; assay: MIC, broth microdilution (NCCLS), S. aureus sa ATCC 13709; type: cell-based; conditions: read-out: Minimal Inhibitory Concentration (MIC)
Protocol: as §1

[11] = tested on: Escherichia coli ATCC 25922; assay: MIC, broth microdilution (NCCLS), E. coli ATCC 25922; type: cell-based; conditions: read-out: Minimal Inhibitory Concentration (MIC)
Protocol: as §1

Staphylococcus aureus 76 = assay: MIC, broth microdilution (NCCLS), S. aureus 76; type: cell-based; conditions: read-out: Minimal Inhibitory Concentration (MIC)
Protocol: as §1, §2

[12] = tested on: Staphylococcus aureus ATCC 29213; assay: MIC, broth microdilution (NCCLS), S. aureus ATCC 29213; type: cell-based; conditions: read-out: Minimal Inhibitory Concentration (MIC)
Protocol: as §1
Staphylococcus ATCC Reference strain

[13] = tested on: Staphylococcus aureus COL; assay: MIC, broth microdilution (NCCLS), S. aureus COL; type: cell-based; conditions: 20 h, read-out: Minimal Inhibitory Concentration (MIC)
Protocol: as §1, §2
aureus COL resistant, β-

[14] = tested on: Pseudomonas Aeruginosa ATCC 27853; assay: MIC, broth microdilution (NCCLS), P. aeruginosa ATCC 27853; type: cell-based; conditions: read-out: Minimal Inhibitory Concentration (MIC)
Protocol: as §1

[15] = tested on: Enterococcus faecalis V583; assay: MIC, broth microdilution (NCCLS), E. faecalis V583; type: cell-based; conditions: read-out: Minimal Inhibitory Concentration (MIC)
Protocol: as §1, §4
faecalis V583 resistant, vanB

[16] = basic aqueous solutions; hydrolytic opening of six-membered ring; cited from earlier work
[17] = cited from earlier work
[18] = tested on: Gram-positive and Gram-negative bacteria; conditions: S- versus R-configuration in the heterocyclic portion; cited from earlier work
[19] = S. haemolyticus UA281, methicillin resistant, 35° C., 20 h
[20] = E. faecium efm040, clinical isolate U.S.A., ampicillin resistant, 35° C., 20 h
[21] = ATCC29212, E. faecalis ATCC 29212, reference strain, 35° C., 20 h
[22] = S. aureus PC1, Type A βlactamase hyperproducer, 35° C., 20 h
[23] = ATCC33593, S. aureus ATCC 33593, methicillin resistant, β-lactamase positive, 35° C., 20 h
[24] = E. faecium BM4147, vancomycin resistant, vanA, 35° C., 20 h
[25] = S. aureus sa201, clinical isolate Spain, methicillin resistant, β-lactamase positive, 35° C., 20 h
[26] = ATCC35667, E. faecium ATCC 35667, reference strain, 35° C., 20 h
[27] = ATCC13709, S. aureus sa ATCC 13709, Smith strain, 35° C., 20 h
[28] = ATCC25922, E. coli ATCC 25922, reference strain, 35° C., 20 h
[29] = Staphylococcus aureus, S. aureus 76, methicillin resistant, β-lactamase positive, 35° C., 20 h
[30] = ATCC29213, S. aureus ATCC 29213, reference strain, 35° C., 20 h
[31] = S. aureus COL, methicillin resistant, β-lactamase negative, 35° C.
[32] = ATCC27853, P. aeruginosa ATCC 27853, reference strain, 35° C., 20 h
[33] = E. faecalis V583, vancomycin resistant, vanB, 35° C., 20 h

CC(=O)NC1=NC(=O)C(N(C)C(=O)C[C@@H](N)CCCNC(=N)N)CN1 (stereo partly shown) [Compound 73a, 3S,5'S/R-3-amino-6-[(aminoiminomethyl)amino]-N-(2-acetylamino-1,4,5,6-tetrahydro-4-oxo-5-pyrimidinyl)-N-methyl-hexanamide]
MIC [1, 19]: 128 µg/mL (≈ 361 µM)
MIC [2, 20]: 256 µg/mL (≈ 722 µM)
MIC [3, 21]: 32 µg/mL (≈ 90.3 µM)
MIC [4]: 16 µg/mL (≈ 45.1 µM)
MIC [5, 22]: 8 µg/mL (≈ 22.6 µM)
MIC [6, 23]: 8 µg/mL (≈ 22.6 µM)
MIC [7, 24]: 128 µg/mL (≈ 361 µM)
MIC [8, 25]: 16 µg/mL (≈ 45.1 µM)
MIC [9, 26]: 64 µg/mL (≈ 181 µM)
MIC [10, 27]: 16 µg/mL (≈ 45.1 µM)
MIC [11, 28]: 128 µg/mL (≈ 361 µM)
MIC (Staphylococcus aureus 76; [29]): 16 µg/mL (≈ 45.1 µM)
MIC [12, 30]: 16 µg/mL (≈ 45.1 µM)
MIC [13, 31]: 16 µg/mL (≈ 45.1 µM)
MIC [14, 32]: 256 µg/mL (≈ 722 µM)

COC(=O)NC1=NC(=O)C(N(C)C(=O)C[C@@H](N)CCCNC(=N)N)CN1 (stereo partly shown) [Compound 73c, 3S,5'S/R-3-amino-6-[(aminoiminomethyl)amino]-N-(2-methoxycarbonylamino-1,4,5,6-tetrahydro-4-oxo-5-pyrimidinyl)-N-methyl-hexanamide]
MIC [15, 33]: 64 µg/mL (≈ 173 µM)
MIC [1, 19]: 256 µg/mL (≈ 691 µM)
MIC [2, 20]: > 256 µg/mL
MIC [3, 21]: 64 µg/mL (≈ 173 µM)
MIC [4]: 64 µg/mL (≈ 173 µM)
MIC [5, 22]: 32 µg/mL (≈ 86.4 µM)
MIC [6, 23]: 64 µg/mL (≈ 173 µM)
MIC [7, 24]: 64 µg/mL (≈ 173 µM)
MIC [8, 25]: 64 µg/mL (≈ 173 µM)
MIC [9, 26]: 128 µg/mL (≈ 346 µM)
MIC [10, 27]: 32 µg/mL (≈ 86.4 µM)
MIC [11, 28]: > 256 µg/mL
MIC (Staphylococcus aureus 76; [29]): 64 µg/mL (≈ 173 µM)
MIC [12, 30]: 64 µg/mL (≈ 173 µM)
MIC [13, 31]: 64 µg/mL (≈ 173 µM)
MIC [14, 32]: > 256 µg/mL

C[C@@H](O)[C@H]1C(=O)N2C(C(=O)O)=C(SCCN=CN)C[C@H]12 [Imipenem]
MIC [15, 33]: 0.5 µg/mL (≈ 1.67 µM)
MIC [1, 19]: 64 µg/mL (≈ 214 µM)
MIC [2, 20]: > 128 µg/mL
MIC [3, 21]: 0.5 µg/mL (≈ 1.67 µM)
MIC [4]: ≤ 0.25 µg/mL
MIC [5, 22]: ≤ 0.25 µg/mL
MIC [6, 23]: 8 µg/mL (≈ 26.7 µM)
MIC [7, 24]: 8 µg/mL (≈ 26.7 µM)
MIC [8, 25]: 64 µg/mL (≈ 214 µM)
MIC [9, 26]: 4 µg/mL (≈ 13.4 µM)
MIC [10, 27]: ≤ 0.25 µg/mL
MIC [11, 28]: ≤ 0.25 µg/mL
MIC (Staphylococcus aureus 76; [29]): 8 µg/mL (≈ 26.7 µM)
MIC [12, 30]: ≤ 0.25 µg/mL
MIC [13, 31]: 32 µg/mL (≈ 107 µM)
MIC [14, 32]: 1 µg/mL (≈ 3.34 µM)

CN(C(=O)C[C@@H](N)CCCNC(=N)N)[C@@H]1CNC(NC(N)=O)=NC1=O [TAN-1057B]
loss of antibacterial activity in basic aqueous solutions [16]: gradually lost their antibacterial activities in basic aqueous solutions

CN1C(=O)C[C@H](CCCNC(=N)N)NC(=O)[C@H]1CNC(=N)NC(N)=O [TAN-1057C]
conversion upon standing in water [17]: rapidly convert to a mixture of TAN-1057A/B upon standing in water

CN1C(=O)C[C@H](CCCNC(=N)N)NC(=O)[C@@H]1CNC(=N)NC(N)=O [TAN-1057D]
conversion upon standing in water [17]: rapidly convert to a mixture of TAN-1057A/B upon standing in water
relative antibacterial activity of stereoisomers [18]: more active than TAN-1057 B and C

CN[C@H](CC(C)C)C(=O)N[C@H]1C(=O)N[C@@H](CC(N)=O)C(=O)N[C@H]2C(=O)N[C@H]3C(=O)N[C@H](C(=O)N[C@H](C(=O)O)c4cc(O)cc(O)c4-c4cc3ccc4O)[C@H](O)c3ccc(c(Cl)c3)Oc3cc2cc(c3O[C@@H]2O[C@H](CO)[C@@H](O)[C@H](O)[C@H]2O[C@H]2C[C@](C)(N)[C@H](O)[C@H](C)O2)Oc2ccc(cc2Cl)[C@H]1O [Vancomycin, vancomycin]
MIC ([15]; V583, 20 h): 16 µg/mL (≈ 11 µM)
MIC ([1]; UA281, 20 h): 1 µg/mL (≈ 0.69 µM)
MIC ([2]; EFM040, 20 h): ≤ 0.25 µg/mL
MIC ([3]; ATCC29212, 20 h): 1 µg/mL (≈ 0.69 µM)
MIC [4]: ≤ 0.25 µg/mL
MIC ([5]; PC1, 20 h): ≤ 0.25 µg/mL
MIC ([6]; ATCC33593, 20 h): 0.5 µg/mL (≈ 0.345 µM)
MIC ([7]; BM4147, 20 h): > 128 µg/mL
MIC ([8]; SA201, 20 h): 0.5 µg/mL (≈ 0.345 µM)
MIC ([9]; ATCC35667, 20 h): ≤ 0.25 µg/mL
MIC ([10]; ATCC13709, 20 h): ≤ 0.25 µg/mL
MIC ([11]; ATCC25922, 20 h): > 128 µg/mL
MIC (Staphylococcus aureus 76; Staphylococcus aureus, 76, 20 h): ≤ 0.25 µg/mL
MIC ([12]; ATCC29213, 20 h): ≤ 0.25 µg/mL
MIC [13]: 1 µg/mL (≈ 0.69 µM)
MIC ([14]; ATCC27853, 20 h): > 128 µg/mL
